From ChEMBL document CHEMBL2086253, “Synthesis and biological evaluation of cyanoguanidine derivatives of loratadine” (Bioorg Med Chem Lett, 2012)
The source made the active and inactive calls. The calls are words filed in the database; no cut-off is given here.

What was measured:
MCF7 [1] = experiment: Cytotoxicity against human MCF7 cells after 72 hrs by crystal violet staining; type: functional, cell-based; conditions: MCF7, 72 h
MDA-MB-231 [2] = experiment: Cytotoxicity against human MDA-MB-231 cells after 72 hrs by crystal violet staining; type: functional, cell-based; conditions: MDA-MB-231, 72 h
HT-29 [3] = experiment: Cytotoxicity against human HT-29 cells after 72 hrs by crystal violet staining; type: functional, cell-based; conditions: HT-29, 72 h
Mus musculus [4] = experiment: Antiinflammatory activity in Kunming mouse assessed as inhibition of xylene-induced ear edema at 4 mg/kg, ip for 5 days relative to control; type: functional; conditions: 120 h, route intraperitoneal
[5] = molecular target: T1, Prostaglandin G/H synthase 1 (Ovis aries) (UniProt P05979); experiment: Inhibition of isolated ovine COX-1 at 10 uM by ELISA
T1 sequence (whole entry): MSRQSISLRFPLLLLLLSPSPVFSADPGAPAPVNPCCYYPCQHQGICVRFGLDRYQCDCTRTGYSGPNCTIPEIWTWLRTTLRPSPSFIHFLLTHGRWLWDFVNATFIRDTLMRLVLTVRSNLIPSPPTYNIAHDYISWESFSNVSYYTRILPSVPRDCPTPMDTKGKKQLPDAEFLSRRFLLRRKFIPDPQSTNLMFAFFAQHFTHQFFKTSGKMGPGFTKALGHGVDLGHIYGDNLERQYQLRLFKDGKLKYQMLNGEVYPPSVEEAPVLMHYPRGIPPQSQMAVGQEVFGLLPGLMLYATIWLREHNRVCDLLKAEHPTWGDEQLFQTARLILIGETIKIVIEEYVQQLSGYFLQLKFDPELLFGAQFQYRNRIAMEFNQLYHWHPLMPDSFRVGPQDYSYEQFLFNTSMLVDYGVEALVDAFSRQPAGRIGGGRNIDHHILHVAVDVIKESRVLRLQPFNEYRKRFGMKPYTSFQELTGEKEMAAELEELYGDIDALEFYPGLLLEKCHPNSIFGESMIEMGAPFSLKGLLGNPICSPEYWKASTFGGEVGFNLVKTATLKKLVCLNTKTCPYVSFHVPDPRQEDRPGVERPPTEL

HT-29 [6] = experiment: Ratio of 5-fluorouracil IC50 to compound IC50 for human HT-29 cells; type: functional
MCF7 [7] = experiment: Cytotoxicity against human MCF7 cells at 0.63 to 10 uM up to 140 hrs by crystal violet staining; type: functional, cell-based
HT-29 [8] = experiment: Cytotoxicity against human HT-29 cells at 0.63 to 10 uM up to 140 hrs by crystal violet staining; type: functional, cell-based
MCF7 [9] = experiment: Ratio of loratadine IC50 to compound IC50 for human MCF7 cells; type: functional
MDA-MB-231 [10] = experiment: Ratio of loratadine IC50 to compound IC50 for human MDA-MB-231 cells; type: functional
MCF7 [11] = experiment: Ratio of 5-fluorouracil IC50 to compound IC50 for human MCF7 cells; type: functional
HT-29 [12] = experiment: Ratio of loratadine IC50 to compound IC50 for human HT-29 cells; type: functional
MDA-MB-231 [13] = experiment: Ratio of 5-fluorouracil IC50 to compound IC50 for human MDA-MB-231 cells; type: functional
Mus musculus [14] = experiment: Antiinflammatory activity in Kunming mouse assessed as inhibition of xylene-induced ear edema at 30 mg/kg, ip for 5 days relative to control; type: functional; conditions: 120 h, route intraperitoneal

| Structure (SMILES) | IC50 (MCF7 [1]) [µM] | IC50 (MDA-MB-231 [2]) [µM] | IC50 (HT-29 [3]) [µM] | inhibition in vivo at 4 mg/kg (Mus musculus [4]) [%] | further results |
| --- | --- | --- | --- | --- | --- |
| N#C/N=C(/NCCc1ccccc1)N1CCC(=C2c3ccc(Cl)cc3CCc3cccnc32)CC1 | 2.3 | 2.6 | 3.2 | 13 |  |
| COc1ccc2c(c1)c(CC(=O)O)c(C)n2C(=O)c1ccc(Cl)cc1 |  |  |  |  | inhibition [5]: 56% |
| CCCCCCCCN/C(=N/C#N)N1CCC(=C2c3ccc(Cl)cc3CCc3cccnc32)CC1 | 1.4 | 4.1 | 2 | 15.6 | Ratio IC50 (HT-29 [6]): 2; Activity (MCF7 [7]): Active; Activity (HT-29 [8]): Active; Ratio IC50 (MCF7 [9]): 2; Ratio IC50 (MDA-MB-231 [10]): 2; Ratio IC50 (MCF7 [11]): 2; Ratio IC50 (HT-29 [12]): 2; Ratio IC50 (MDA-MB-231 [13]): 2 |
| N#C/N=C(/NCc1ccccc1)N1CCC(=C2c3ccc(Cl)cc3CCc3cccnc32)CC1 | 2.9 | 2.7 | 3.1 | 13 |  |
| CC(N/C(=N/C#N)N1CCC(=C2c3ccc(Cl)cc3CCc3cccnc32)CC1)c1ccccc1 (centres undefined) | 4 | 6.9 | 3.7 | 26.1 | inhibition [5]: 4.9% |
| CC(C)Cc1ccc(C(C)C(=O)O)cc1 (centres undefined) [IBUPROFEN] |  |  |  | 8.22 | inhibition in vivo at 30 mg/kg (Mus musculus [14]): 39.1% |
| CCCCCN/C(=N/C#N)N1CCC(=C2c3ccc(Cl)cc3CCc3cccnc32)CC1 | 3.5 | 1.7 | 4.4 | 13 |  |
| CCCCN/C(=N/C#N)N1CCC(=C2c3ccc(Cl)cc3CCc3cccnc32)CC1 | 3.9 | 3.1 | 4 | 17.4 |  |
| COc1ccc(CCN/C(=N/C#N)N2CCC(=C3c4ccc(Cl)cc4CCc4cccnc43)CC2)cc1OC | 7.1 | 18.2 | 5.7 | 21.7 |  |
| N#C/N=C(/NCCc1ccc2c(c1)OCO2)N1CCC(=C2c3ccc(Cl)cc3CCc3cccnc32)CC1 | 8 | 12.9 | 6.5 | 13 |  |
| O=c1[nH]cc(F)c(=O)[nH]1 [FLUOROURACIL] | 4.7 |  |  |  |  |
| N#C/N=C(/NC1CCCCC1)N1CCC(=C2c3ccc(Cl)cc3CCc3cccnc32)CC1 | 3.9 | 1.9 | 4 | 17.4 |  |
